Like-named read-outs stand apart in the source and are kept apart here.
Legend:
[1] = test system: EBC-1 lung cancer cell line; test: High-throughput screening, CellTiter-Glo cell viability assay at 100 nM; format: cell-based, human; conditions: Homo sapiens, EBC-1, HTS, compounds at 100 nM, 72 h, read-out: cytotoxicity expressed in IC50, EBC-1 (results of High throughput screening)
[2] = test system: H2228 lung cancer cell line; test: as above; format: cell-based, human; conditions: Homo sapiens, NCI-H2228, HTS, compounds at 100 nM, 72 h, read-out: cytotoxicity expressed in IC50, H2228 (results of High throughput screening)
Panc-1 human cell line = test: Cytotoxicity on Panc-1, xCELLigence SP, IC50 after 24 h, 48 h, 72 h and 96 h (Example 22)
[3] = test system: Capan-1 (pancreas, adenocarcinoma) cells; test: Cell viability assay, CellTiter-Glo (Example 21); format: cell-based, human; conditions: 72 h treatment
Procedure: (§1) Effect of the selected compounds on cancer cell viability was measured via CellTiter-Glo® luminescent cell viability assay (Promega, Madison, WI, USA) according to the manufacturer's instructions. Cells were plated onto a flat-bottomed, white 96 well plate (BRANDplates®, cat. no.: 781965). Density of the seeded cells was optimized based on their size and growth rate, as the follows: Panc-1:750 cells/well; DU 145, PC-3, Capan-1, MIA PaCa-2, SCC-25, FaDu and EBC-1: 1000 cells/well; LNCaP, Detroit 562, MDA-MB-231 and MDA-MB-453 1500 cells/well. […] After the treatment, the luminescence signal was recorded using a microplate reader (BioTek Synergy 2 Multi-Mode Reader, BioTek, Winooski, VT, USA). Dose-response curves were generated by GraphPad Prism 8.4.2. software using a non-linear regression model (variable slope, four parameters), (see FIGS. 12-51).

[4] = test system: MDA-MB-453 (breast, carcinoma) cells; test: Cell viability assay, CellTiter-Glo (Example 21); format: cell-based, human; conditions: 72 h treatment
Procedure: as §1

[5] = test system: MIA PaCa-2 (pancreas, carcinoma) cells; test: Cell viability assay, CellTiter-Glo (Example 21); format: cell-based, human; conditions: 72 h treatment
Procedure: as §1

[6] = test system: SCC-25 (tongue, squamous cell carcinoma) cells; test: Cell viability assay, CellTiter-Glo (Example 21); format: cell-based, human; conditions: 72 h treatment
Procedure: as §1

[7] = test system: PC-3 (prostate, adenocarcinoma) cells; test: Cell viability assay, CellTiter-Glo (Example 21); format: cell-based, human; conditions: 72 h treatment
Procedure: as §1

[8] = test system: DU 145 (prostate, carcinoma) cells; test: Cell viability assay, CellTiter-Glo (Example 21); format: cell-based, human; conditions: 72 h
Procedure: as §1

[9] = test system: MDA-MB-231 (breast, adenocarcinoma) cells; test: Cell viability assay, CellTiter-Glo (Example 21); format: cell-based, human; conditions: 72 h treatment
Procedure: as §1

Fadu cell line = test: Additional in vitro IC50 tests (Table 3); format: cell-based; conditions: Homo sapiens
Outline: (§2)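 Cells at 1000/well, viability by CellTiter-Glo luminescence after compound treatment, as % of untreated control. IC50 from variable-slope log(inhibitor) vs response nonlinear regression.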

SCC-25 cell line = test: Additional in vitro IC50 tests (Table 3); format: cell-based; conditions: Homo sapiens
Outline: as §2

EBC-1 cell line = test: Additional in vitro IC50 tests (Table 3); format: cell-based; conditions: Homo sapiens
Outline: as §2

Detroit 562 cell line = test: Additional in vitro IC50 tests (Table 3); format: cell-based; conditions: Homo sapiens
Outline: as §2

H2228 cell line = test: Additional in vitro IC50 tests (Table 3); format: cell-based; conditions: Homo sapiens, NCI-H2228
Outline: as §2

[10] = test system: Panc1 pancreatic cancer cell line; test: CellTiter-Glo IC50 (Example 19); format: cell-based; conditions: Homo sapiens, PANC-1, 72 h
Outline: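 Cultures grown under ATCC conditions at 37° C with 5% CO2 are plated at 1000 cells/well, treated with compound, then lysed with CellTiter-Glo after medium removal. Luminescence gives viability as a fraction of untreated cells; IC50 is taken from a log(inhibitor) vs response fit.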

[11] = PANC-1, 72 h, read-out: IC50 (72 h) [nM]
[12] = PANC-1, 96 h, read-out: IC50 (96 h) [nM]

Row | Structure (SMILES) | IC50 (Panc-1 human cell line; [11]) | IC50 (Panc-1 human cell line; [12]) | Capan-1 (pancreas, adenocarcinoma) cell viability (% of control) ([3]; 3.7 nM) | Capan-1 (pancreas, adenocarcinoma) cell viability (% of control) ([3]; 11.1 nM) | Capan-1 (pancreas, adenocarcinoma) cell viability (% of control) ([3]; 100 nM) | Capan-1 (pancreas, adenocarcinoma) cell viability (% of control) ([3]; 300 nM) | MDA-MB-453 (breast, carcinoma) cell viability (% of control) ([4]; 3.7 nM) | MDA-MB-453 (breast, carcinoma) cell viability (% of control) ([4]; 11.1 nM) | MDA-MB-453 (breast, carcinoma) cell viability (% of control) ([4]; 100 nM) | MDA-MB-453 (breast, carcinoma) cell viability (% of control) ([4]; 300 nM) | MIA PaCa-2 (pancreas, carcinoma) cell viability (% of control) ([5]; 3.7 nM) | MIA PaCa-2 (pancreas, carcinoma) cell viability (% of control) ([5]; 11.1 nM) | MIA PaCa-2 (pancreas, carcinoma) cell viability (% of control) ([5]; 100 nM) | MIA PaCa-2 (pancreas, carcinoma) cell viability (% of control) ([5]; 300 nM) | SCC-25 (tongue, squamous cell carcinoma) cell viability (% of control) ([6]; 3.7 nM) | SCC-25 (tongue, squamous cell carcinoma) cell viability (% of control) ([6]; 11.1 nM) | SCC-25 (tongue, squamous cell carcinoma) cell viability (% of control) ([6]; 100 nM) | SCC-25 (tongue, squamous cell carcinoma) cell viability (% of control) ([6]; 300 nM) | PC-3 (prostate, adenocarcinoma) cell viability (% of control) ([7]; 3.7 nM) | PC-3 (prostate, adenocarcinoma) cell viability (% of control) ([7]; 11.1 nM) | other results
1 | O=C1C2=C(CCN(Cc3cccc(F)c3)C2)N2CCN=C2N1Cc1ccc(C(F)(F)F)cc1 [I/3, reference compound] | 45.3 ± 3.34 nM | 22.6 ± 0.856 nM | 102.7 ± 6.9 % of control | 101.5 ± 5.5 % of control | 38.7 ± 2.8 % of control | 33.0 ± 2.2 % of control | 110.3 ± 7.7 % of control | 97.0 ± 13.3 % of control | 33.2 ± 2.0 % of control | 29.8 ± 1.5 % of control | 107.1 ± 16.4 % of control | 105.2 ± 3.4 % of control | 17.5 ± 7.9 % of control | 17.2 ± 7.5 % of control | 101.0 ± 4.9 % of control | 95.1 ± 5.1 % of control | 34.9 ± 3.9 % of control | 33.1 ± 1.7 % of control | 100.8 ± 4.0 % of control | 110.2 ± 4.1 % of control | IC50 [1]: < 100 nM; IC50 [2]: < 100 nM; PC-3 (prostate, adenocarcinoma) cell viability (% of control) ([7]; 100 nM): 34.7 ± 1.0 % of control; PC-3 (prostate, adenocarcinoma) cell viability (% of control) ([7]; 300 nM): 32.3 ± 2.6 % of control; DU 145 cell viability ([8]; 3.7 nM): 102.0 ± 3.5 % of control; DU 145 cell viability ([8]; 11.1 nM): 95.9 ± 5.1 % of control; DU 145 cell viability ([8]; 100 nM): 7.1 ± 1.6 % of control; DU 145 cell viability ([8]; 300 nM): 7.2 ± 1.2 % of control; MDA-MB-231 (breast, adenocarcinoma) cell viability (% of control) ([9]; 3.7 nM): 101.4 ± 1.4 % of control; MDA-MB-231 (breast, adenocarcinoma) cell viability (% of control) ([9]; 11.1 nM): 99.8 ± 1.8 % of control; MDA-MB-231 (breast, adenocarcinoma) cell viability (% of control) ([9]; 100 nM): 56.5 ± 3.4 % of control; MDA-MB-231 (breast, adenocarcinoma) cell viability (% of control) ([9]; 300 nM): 53.7 ± 3.1 % of control
2 | O=C1C2=C(CCN(Cc3cc(F)cc(F)c3)C2)N2CCN=C2N1Cc1ccc(Cl)cc1 [I/124, 4-(4-Chlorobenzyl)-7-(3,5-difluorobenzyl)-2,4,6,7,8,9-hexahydroimidazo[1,2-a]pyrido[3,4-e]pyrimidin-5(1H)-one] | 1.31 ± 0.286 nM | < 0.25 nM | 88.5 ± 1.8 % of control | 35.3 ± 3.1 % of control | 33.6 ± 1.1 % of control | 34.6 ± 2.4 % of control | 37.9 ± 3.2 % of control | 33.5 ± 1.8 % of control | 31.2 ± 2.2 % of control | 30.9 ± 1.4 % of control | 33.5 ± 12.1 % of control | 18.9 ± 7.1 % of control | 18.7 ± 7.1 % of control | 18.0 ± 7.3 % of control | 47.2 ± 5.8 % of control | 34.3 ± 2.0 % of control | 37.5 ± 1.4 % of control | 42.3 ± 5.2 % of control | 46.9 ± 4.2 % of control | 33.9 ± 3.3 % of control | IC50 (Fadu cell line): 2 nM; IC50 (SCC-25 cell line): 4 nM; IC50 (EBC-1 cell line): 3 nM; IC50 (Detroit 562 cell line): < 1 nM; IC50 (H2228 cell line): 3 nM; IC50 [10]: 2 nM; PC-3 (prostate, adenocarcinoma) cell viability (% of control) ([7]; 100 nM): 32.8 ± 3.2 % of control; PC-3 (prostate, adenocarcinoma) cell viability (% of control) ([7]; 300 nM): 32.7 ± 14.4 % of control; DU 145 cell viability ([8]; 3.7 nM): 10.0 ± 1.4 % of control; DU 145 cell viability ([8]; 11.1 nM): 7.0 ± 1.1 % of control; DU 145 cell viability ([8]; 100 nM): 8.0 ± 1.0 % of control; DU 145 cell viability ([8]; 300 nM): 7.7 ± 1.8 % of control; MDA-MB-231 (breast, adenocarcinoma) cell viability (% of control) ([9]; 3.7 nM): 82.4 ± 7.2 % of control; MDA-MB-231 (breast, adenocarcinoma) cell viability (% of control) ([9]; 11.1 nM): 59.4 ± 4.5 % of control; MDA-MB-231 (breast, adenocarcinoma) cell viability (% of control) ([9]; 100 nM): 55.9 ± 5.3 % of control; MDA-MB-231 (breast, adenocarcinoma) cell viability (% of control) ([9]; 300 nM): 54.2 ± 2.4 % of control

Source: US20230295162A1 (EÖTVÖS LORÁND TUDOMÁNYEGYETEM, priority 2020, published 2023)
